The values that follow come from patent publication US20240217973A1, “IMIDAZOPYRIDINE COMPOUNDS AND USE THEREOF” (MEDSHINE DISCOVERY INC., priority 2021, published 2024).

The subject of series [1] is plasma proteins. In words: Plasma protein binding experiment (PPB), H. It counts as in vitro ADME, human. Conditions: 2 μM, 4 hours dialysis. As for the experimental part:
(§1) Experimental operation: 995 μL of blank plasma of each genus was taken, 5 μL of working solution of test compound (400 μM) or working solution of warfarin (400 μM) was added, so that the final concentrations of the test compound and warfarin in the plasma sample was 2 μM. The sample was mixed thoroughly. The final concentration of the organic phase DMSO was 0.5%; 50 μL of plasma samples of the test compound and warfarin were pipetted into the sample receiving plate (three parallels), and the corresponding volume of the corresponding blank plasma or buffer was immediately added so that the final volume of each sample well was 100 μL, with a volume ratio of 1:1 for plasma: dialysis buffer, and then 500 μL of stop solution was added to these samples, and these samples would be used as a T0 sample for the recovery and stability determination. […] All samples were analyzed by LC/MS/MS after protein precipitation, and the protein binding rate and recovery rate were calculated by the formula: % Unbound=100*F/T, % Bound=100−% Unbound, % Recovery 100*(F+T) T0 (where F was the peak area ratio of the compound in the dialysate after 4 hours of dialysis; T was the peak area ratio of the compound in the plasma after 4 hours of dialysis, and T0 was the peak area ratio of the compound in the plasma sample at zero time).

For series [2], the system named is plasma proteins. In words: Plasma protein binding experiment (PPB), D. The format is in vitro ADME, dog. As to conditions: 2 μM, 4 hours dialysis. As for the experimental part:
as §1

Series [3] deals with plasma proteins. In words: Plasma protein binding experiment (PPB), C. The format is in vitro ADME, cynomolgus monkey. Conditions: 2 μM, 4 hours dialysis. As to the method:
as §1

Series [4] is described as follows: Hepatocyte metabolic stability experiment (HMS), D. The format is in vitro ADME. As to conditions: dog, D hepatocytes, read-out: HMS CLint(liver). As to the method:
(§2) Experimental operations: 198 μL of hepatocyte suspension (0.51×10^6 cells/mL) was added to the preheated incubation plate, and 198 μL of culture medium without hepatocytes was added to T0-MC and T120-MC incubation plates for the culture medium control group, and all incubation plates were pre-incubated for 10 minutes in a 37° C. incubator. Then 2 μL of the working solution of the test and control compounds were added and mixed well, and the incubation plate was immediately put into the plate shaker in the incubator, the rotation speed was adjusted to about 650 rpm, and the timer and the reaction were started. 2 duplicate samples for each compound were prepared at each time point. Incubation conditions: 37° C., saturated humidity, and containing 5% CO2. In the test system, the final concentration of the test compound was 1 μM, the final concentration of the control compound was 3 μM, the final concentration of hepatocytes was 0.5×10^6 cells/mL, and the final concentration of the total organic solvent was 0.96%, of which the final concentration of DMSO was 0.1%. […] All samples were mixed and analyzed by LC-MS/MS method. […]

The nature of series [5]: Hepatocyte metabolic stability experiment (HMS), C. Conditions: cynomolgus monkey, C hepatocytes, read-out: HMS CLint(liver). It counts as in vitro ADME. As to the method: as §2
Series [6] is described as follows: Pharmacokinetic evaluation of compounds in mice. As to conditions: mouse, plasma, CD-1 male mice. It counts as in vivo, CD-1 mice. As for the experimental part: Experimental purpose: To test the in vivo pharmacokinetic data of compounds in CD-1 mice.
The compound was mixed with the solvent 5% DMSO/5% Solutol/90% H2O, vortexed and sonicated to prepare a 0.5 mg/mL clear solution. CD-1 male mice aged 7 to 10 weeks were selected, and administered the candidate compound solution intravenously. Whole blood was collected for a certain period of time, and plasma was prepared. The drug concentration was analyzed by LC-MS/MS method, and pharmacokinetic parameters were calculated by Phoenix WinNonlin software (Pharsight Company, USA).
The compound was mixed with the solvent 5% DMSO/5% Solutol/90% H2O, vortexed and sonicated to prepare a 0.5 mg/mL clear solution. CD-1 male mice aged 7 to 10 weeks were selected, and administered the candidate compound solution orally. Whole blood was collected for a certain period of time, and plasma was prepared. The drug concentration was analyzed by LC-MS/MS method, and pharmacokinetic parameters were calculated by Phoenix WinNonlin software (Pharsight Company, USA).

The subject of series [7] is experimental autoimmune encephalomyelitis (EAE) model. Kind of series: In vivo efficacy of EAE in C57BL/6 mice. Conditions: C57BL/6 female mice, 5 mg/kg. As for the experimental part: Experimental methods: Experimental autoimmune encephalomyelitis (EAE) model was established in 10-week-old C57BL/6 female mice, and the animals were randomly divided into two groups according to their weight, of which, group G1 was a pure modeling group with 5 animals, and group G2 was a subject 002 group with 7 animals. On day 0, 100 μL of myelin oligodendrocyte glycoprotein (MOG) emulsion was injected subcutaneously into the hind flank of each animal in the G1-G2 group at two points, totaling 200 μL. After 2 hours and 48 hours, respectively, 200 μL of pertussis toxin (PTX) was injected subcutaneously into the animals of groups G1-G2. The in vivo experiment was finished on day 22, and no treatment was given to group G1 from day 0; G2 group was administered 5 mg/kg of subject 002 once a day for […]. The animals in each group were weighed and scored (including tail weakness, claudication, hind limb paralysis, hind limb paralysis and other symptoms) every 2 days. [table] [table]

Setting [8] is: IV, 1.0 mg/kg (002), 1.2 mg/kg (003B).
Setting [9] is: PO, 2.9 mg/kg (002), 2.85 mg/kg (003B).

What is called AUC(0-inf) is total exposure, with the tail of the curve extrapolated. As a reminder, the Vd is the apparent volume that relates the amount in the body to the concentration in plasma or blood. Low values mean confinement near the circulation, high ones extensive tissue distribution. Usually clearance stands for the volume of plasma or blood freed of the substance per unit of time. Read a low clearance as inefficient removal. The half-life is how long it takes for the measured level to halve. Broadly, the Cmax is the peak of the concentration-time curve. As usually defined, the Tmax is the time from dosing to the highest level. Broadly, the bioavailability is the share of a dose that reaches the circulation, judged against a reference dose that is usually intravenous. Low values mean poor availability, high ones good availability. For `Nc1nccc2c1n(-c1ccc(Oc3ccccc3)cc1)c(=O)n2[C@@H]1CCCN(C(=O)/C=C/CF)C1` [Compound 002], the “Unbound PPB” value in the series with plasma proteins [1] was determined as 8.2%. Also, the “Unbound PPB” value in the series with plasma proteins [2] was 4.3%. Further, the “Unbound PPB” value with plasma proteins [3] was 4.1%. For the same compound, the CLint scaled at 1 μM in series [4] amounted to 187 mL/min/kg. For the same compound, in series [5], the CLint scaled at 1 μM is 203 mL/min/kg. In series [6] (setting [8]), this compound yielded an AUC(0-inf) of 0.697 µM·h, a C0 of 4190 nM, a Vd of 0.76 L/kg and a clearance of 49 mL/min/kg. Also, the half-life in series [6] (setting [8]) was 16.8 min. In addition, in series [6] (setting [9]), the area under the curve AUC(0-inf) came to 0.83 µM·h, the Cmax was found to be 1190 nM, the Tmax was 4.98 min and the bioavailability amounted to 39.7%. Further, the half-life in series [6] (setting [9]) is 21 min. Further, the “efficacy in EAE model / severity of the disease (in words)” value in series [7] (QD, compared with the modeling group) was “effective in reducing the severity of the disease”. Further, the “Scores of animals on day 20 after administration” value in series [7] (EAE model, QD × 29, moulding group 1.8) worked out at 0.4.
